Source: patent publication US11578343B2, “CAS9 proteins including ligand-dependent inteins” (President and Fellows of Harvard College, priority 2014, dated 2023)

Columns and labels:
Assay type in all cases: cell-based, human
VEGF Off 2 = assay: High-throughput DNA sequencing of genome modifications; conditions: 500 ng Cas9 plasmid; for Mod. Freq (indels/total sequences), VEGF Off 2: Table 4; for Mod Freq (indels/total sequences), VEGF Off 2: +4-HT, Table 6
Protocol: (§1) We assayed these Cas9:sgRNA combinations in human cells for their ability to modify the three on-target loci as well as 11 known off-target genomic sites (Table 3)^4,5,10,13. Cells were treated with or without 1 μM 4-HT during transfection, and after 12 h the media was replaced with fresh media lacking 4-HT. […] Genomic DNA was isolated 60 h post-transfection and analyzed by high-throughput DNA sequencing
(§2) High-throughput DNA sequencing of genome modifications. HEK293-GFP stable cells were transfected with plasmids expressing Cas9 (500 ng) and sgRNA (125 ng) as described above. […] 4-HT (1 μM final), where appropriate, was added during transfection. 12 h after transfection, the media was replaced with full serum media without 4-HT. Genomic DNA was isolated and pooled from three biological replicates 60 h after transfection using a previously reported^11 protocol with a DNAdvance Kit (Agencourt). 150 ng or 200 ng of genomic DNA was used as a template to amplify by PCR the on-target and off-target genomic sites with flanking HTS primer pairs described previously^11. PCR products were purified using RapidTips (Diffinity Genomics) and quantified using the PicoGreen dsDNA Assay Kit (Invitrogen). Purified DNA was PCR amplified with primers containing sequencing adaptors, purified with the MinElute PCR Purification Kit (Qiagen) and AMPure XP PCR Purification (Agencourt). Samples were sequenced on a MiSeq high-throughput DNA sequencer (Illumina), and sequencing data was analyzed as described previously^4.
(§3) Sensitivity limit of off-target cleavage assays. We used paired end sequencing to identify indels caused by genomic on- and off-target cleavage. […] A 1 ng sample of human gDNA represents only ˜330 unique genomes, and thus only ˜330 unique copies of each genomic site are present. PCR amplification for each genomic target was performed on a total of 150 ng or 200 ng of input gDNA, which provides amplicons derived from at most 50,000 or 65,000 unique gDNA copies, respectively. Therefore, the high-throughput sequencing assay cannot detect rare genome modification events that occur at a frequency of less than approximately 1 in 50,000 (0.002%). When comparing between two conditions, such as wt Cas9 vs. intein-Cas9, this threshold becomes approximately 10 in 50,000 (0.02%) when using the Fisher exact test and a conservative multiple comparison correction (Bonferroni with 14 samples). See also Minoche, A. E., Dohm, J. C., & Himmelbauer, H. Evaluation of genomic high-throughput sequencing data generated on Illumina HiSeq and Genome Analyzer systems. Genome Biology 12, R112 (2011).

EMX Off 2 = assay: as above; conditions: 500 ng Cas9 plasmid; for Mod. Freq (indels/total sequences), EMX Off 2: Table 4; for Mod Freq (indels/total sequences), EMX Off 2: +4-HT, Table 6
Protocol: as §1, §2, §3

CLTA Off 3 = assay: as above; conditions: 500 ng Cas9 plasmid; for Mod. Freq (indels/total sequences), CLTA Off 3: Table 4; for Mod Freq (indels/total sequences), CLTA Off 3: +4-HT, Table 6
Protocol: as §1, §2, §3

EMX Off 1 = assay: as above; conditions: 500 ng Cas9 plasmid; for Mod. Freq (indels/total sequences), EMX Off 1: Table 4; for Mod Freq (indels/total sequences), EMX Off 1: +4-HT, Table 6
Protocol: as §1, §2, §3

CLTA Off 2 = assay: as above; conditions: 500 ng Cas9 plasmid; for Mod. Freq (indels/total sequences), CLTA Off 2: Table 4; for Mod Freq (indels/total sequences), CLTA Off 2: +4-HT, Table 6
Protocol: as §1, §2, §3

VEGF Off 1 = assay: as above; conditions: 500 ng Cas9 plasmid; for Mod. Freq (indels/total sequences), VEGF Off 1: Table 4; for Mod Freq (indels/total sequences), VEGF Off 1: +4-HT, Table 6
Protocol: as §1, §2, §3

CLTA On = assay: as above; conditions: 500 ng Cas9 plasmid; for Mod. Freq (indels/total sequences), CLTA On: Table 4; for Mod Freq (indels/total sequences), CLTA On: +4-HT, Table 6
Protocol: as §1, §2, §3

EMX Off 4 = assay: as above; conditions: 500 ng Cas9 plasmid; for Mod. Freq (indels/total sequences), EMX Off 4: Table 4; for Mod Freq (indels/total sequences), EMX Off 4: +4-HT, Table 6
Protocol: as §1, §2, §3

VEGF Off 3 = assay: as above; conditions: 500 ng Cas9 plasmid; for Mod. Freq (indels/total sequences), VEGF Off 3: Table 4; for Mod Freq (indels/total sequences), VEGF Off 3: +4-HT, Table 6
Protocol: as §1, §2, §3

CLTA Off 1 = assay: as above; conditions: 500 ng Cas9 plasmid; for Mod. Freq (indels/total sequences), CLTA Off 1: Table 4; for Mod Freq (indels/total sequences), CLTA Off 1: +4-HT, Table 6
Protocol: as §1, §2, §3

EMX genomic site = assay: T7 Endonuclease I Surveyor assay of genomic modification; conditions: FIG. 2
Protocol: (§4) The presence of two bands corresponding to smaller DNA fragments (the fragments are approximately the same size for EMX) indicates genomic modification.
(§5) 4-HT (1 μM) was added during transfection for +4-HT samples. 12 hours after transfection the media was replaced. 60 hours after transfection, cells were trypsinized and genomic DNA was isolated using the DNAdvance kit (Agencourt). […] PCR products were purified with a QIAquick PCR Purification Kit (Qiagen) and quantified with a Quant-iT PicoGreen dsDNA Kit (Life Technologies). 200 ng of purified PCR DNA was then combined with 2 μL of NEBuffer 2 (NEB) in a total volume of 19 μL and denatured then re-annealed with thermocycling at 95° C. for 5 min, 95-85° C. at 2° C./s, 85-20° C. at 0.2° C./s. The re-annealed DNA was incubated with 1 μL of T7 Endonuclease I (10 U/μL, NEB) at 37° C. for 15 min. 10 μL of 50% glycerol was added to the T7 Endonuclease reaction and 15 μL was analyzed on a 5% TBE 18-well Criterion PAGE gel (Bio-Rad) electrophoresed for 30 min at 200V and stained with EtBr for 15 min.

CLTA genomic site = assay: as above; conditions: FIG. 2
Protocol: as §4, §5

VEGF genomic site = assay: as above; conditions: FIG. 2
Protocol: as §4, §5

Substance	Mod. Freq (indels/total sequences), VEGF Off 2 (VEGF Off 2; +4-HT (1 μM, 12 h)) [%]	Mod Freq (indels/total sequences), VEGF Off 2 (VEGF Off 2) [%]	Mod. Freq (indels/total sequences), VEGF Off 2 (VEGF Off 2; −4-HT) [%]	Mod. Freq (indels/total sequences), EMX Off 2 (EMX Off 2; +4-HT (1 μM, 12 h)) [%]	Mod Freq (indels/total sequences), EMX Off 2 (EMX Off 2) [%]	Mod. Freq (indels/total sequences), EMX Off 2 (EMX Off 2; −4-HT) [%]	Mod. Freq (indels/total sequences), CLTA Off 3 (CLTA Off 3; +4-HT (1 μM, 12 h)) [%]	Mod Freq (indels/total sequences), CLTA Off 3 (CLTA Off 3) [%]	Mod. Freq (indels/total sequences), CLTA Off 3 (CLTA Off 3; −4-HT) [%]	Mod. Freq (indels/total sequences), EMX Off 1 (EMX Off 1; +4-HT (1 μM, 12 h)) [%]	Mod Freq (indels/total sequences), EMX Off 1 (EMX Off 1) [%]	Mod. Freq (indels/total sequences), EMX Off 1 (EMX Off 1; −4-HT) [%]	Mod. Freq (indels/total sequences), CLTA Off 2 (CLTA Off 2; +4-HT (1 μM, 12 h)) [%]	Mod Freq (indels/total sequences), CLTA Off 2 (CLTA Off 2) [%]	Mod. Freq (indels/total sequences), CLTA Off 2 (CLTA Off 2; −4-HT) [%]	Mod. Freq (indels/total sequences), VEGF Off 1 (VEGF Off 1; +4-HT (1 μM, 12 h)) [%]	Mod Freq (indels/total sequences), VEGF Off 1 (VEGF Off 1) [%]	Mod. Freq (indels/total sequences), VEGF Off 1 (VEGF Off 1; −4-HT) [%]	Mod. Freq (indels/total sequences), CLTA On (CLTA On; +4-HT (1 μM, 12 h)) [%]	Mod Freq (indels/total sequences), CLTA On (CLTA On) [%]	also measured
intein(Cys574)-Cas9: Cas9 with 37R3-2 intein replacing Cys574 (SEQ ID NO: 33)	0.77	0.38	0.05	0.04	0.02	0.01	0.01	0.01	0.00	0.27	0.17	0.01	0.02	0.00	0.00	4.68	3.18	0.29	7.65	6.35	Mod. Freq (indels/total sequences), CLTA On (CLTA On; −4-HT): 1.81%; Mod. Freq (indels/total sequences), EMX Off 4 (EMX Off 4; +4-HT (1 μM, 12 h)): 1.13%; Mod Freq (indels/total sequences), EMX Off 4 (EMX Off 4): 0.85%; Mod. Freq (indels/total sequences), EMX Off 4 (EMX Off 4; −4-HT): 0.09%; Mod. Freq (indels/total sequences), VEGF Off 3 (VEGF Off 3; +4-HT (1 μM, 12 h)): 0.19%; Mod Freq (indels/total sequences), VEGF Off 3 (VEGF Off 3): 0.07%; Mod. Freq (indels/total sequences), VEGF Off 3 (VEGF Off 3; −4-HT): 0.01%; Mod. Freq (indels/total sequences), CLTA Off 1 (CLTA Off 1; +4-HT (1 μM, 12 h)): 0.04%; Mod Freq (indels/total sequences), CLTA Off 1 (CLTA Off 1): 0.03%; Mod. Freq (indels/total sequences), CLTA Off 1 (CLTA Off 1; −4-HT): 0.01%; Genomic modification of target site (T7E1 gel) (EMX genomic site; +4-HT (1 μM)): comparable to modification by wild-type Cas9; Genomic modification of target site (T7E1 gel) (EMX genomic site; absence of 4-HT): minimal or no modification; Genomic modification of target site (T7E1 gel) (CLTA genomic site; +4-HT (1 μM)): comparable to modification by wild-type Cas9; Genomic modification of target site (T7E1 gel) (CLTA genomic site; absence of 4-HT): some background cleavage; Genomic modification of target site (T7E1 gel) (VEGF genomic site; +4-HT (1 μM)): comparable to modification by wild-type Cas9; Genomic modification of target site (T7E1 gel) (VEGF genomic site; absence of 4-HT): minimal or no modification
intein(Ser219)-Cas9: Cas9 with 37R3-2 intein replacing Ser219 (SEQ ID NO: 30)	1.49	0.90	0.08	0.04	0.04	0.02	0.03	0.01	0.00	0.42	0.20	0.01	0.00	0.00	0.00	8.50	4.61	0.43	14.48	9.13	Mod. Freq (indels/total sequences), CLTA On (CLTA On; −4-HT): 4.30%; Mod. Freq (indels/total sequences), EMX Off 4 (EMX Off 4; +4-HT (1 μM, 12 h)): 3.16%; Mod Freq (indels/total sequences), EMX Off 4 (EMX Off 4): 2.18%; Mod. Freq (indels/total sequences), EMX Off 4 (EMX Off 4; −4-HT): 0.19%; Mod. Freq (indels/total sequences), VEGF Off 3 (VEGF Off 3; +4-HT (1 μM, 12 h)): 0.37%; Mod Freq (indels/total sequences), VEGF Off 3 (VEGF Off 3): 0.16%; Mod. Freq (indels/total sequences), VEGF Off 3 (VEGF Off 3; −4-HT): 0.04%; Mod. Freq (indels/total sequences), CLTA Off 1 (CLTA Off 1; +4-HT (1 μM, 12 h)): 0.36%; Mod Freq (indels/total sequences), CLTA Off 1 (CLTA Off 1): 0.23%; Mod. Freq (indels/total sequences), CLTA Off 1 (CLTA Off 1; −4-HT): 0.01%; Genomic modification of target site (T7E1 gel) (EMX genomic site; +4-HT (1 μM)): comparable to modification by wild-type Cas9; Genomic modification of target site (T7E1 gel) (EMX genomic site; absence of 4-HT): minimal or no modification; Genomic modification of target site (T7E1 gel) (CLTA genomic site; +4-HT (1 μM)): comparable to modification by wild-type Cas9; Genomic modification of target site (T7E1 gel) (CLTA genomic site; absence of 4-HT): some background cleavage; Genomic modification of target site (T7E1 gel) (VEGF genomic site; +4-HT (1 μM)): comparable to modification by wild-type Cas9; Genomic modification of target site (T7E1 gel) (VEGF genomic site; absence of 4-HT): minimal or no modification
